# Assay results: patent publication US9815796B2 (Merck Sharp & Dohme Corp., priority 2013, dated 2017)
# Biological target: Rhesus PDE2A3 (Macaca mulatta, UniProt B3VTJ2)
# Assay: PDE2 fluorescence polarization (IMAP FP) inhibition assay, rhesus enzyme
# Assay type: biochemical, rhesus macaque
# Details: Rhesus PDE2, Lab A, at 1 uM
# Procedure, shortened: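 Rhesus PDE2A3 came from lysate of transiently transfected AD293 cells, diluted to give 20% substrate conversion. Substrate was 50 nM FAM-cAMP with 1 uM cGMP activator in Tris pH 7.2/MgCl2 buffer, run 60 min at room temperature over 10-point 3-fold dilutions in 1% DMSO. Read-out was IMAP fluorescence polarization (mP) after ≥1 h binding.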
# Sequence of Rhesus PDE2A3 (B3VTJ2 1-941): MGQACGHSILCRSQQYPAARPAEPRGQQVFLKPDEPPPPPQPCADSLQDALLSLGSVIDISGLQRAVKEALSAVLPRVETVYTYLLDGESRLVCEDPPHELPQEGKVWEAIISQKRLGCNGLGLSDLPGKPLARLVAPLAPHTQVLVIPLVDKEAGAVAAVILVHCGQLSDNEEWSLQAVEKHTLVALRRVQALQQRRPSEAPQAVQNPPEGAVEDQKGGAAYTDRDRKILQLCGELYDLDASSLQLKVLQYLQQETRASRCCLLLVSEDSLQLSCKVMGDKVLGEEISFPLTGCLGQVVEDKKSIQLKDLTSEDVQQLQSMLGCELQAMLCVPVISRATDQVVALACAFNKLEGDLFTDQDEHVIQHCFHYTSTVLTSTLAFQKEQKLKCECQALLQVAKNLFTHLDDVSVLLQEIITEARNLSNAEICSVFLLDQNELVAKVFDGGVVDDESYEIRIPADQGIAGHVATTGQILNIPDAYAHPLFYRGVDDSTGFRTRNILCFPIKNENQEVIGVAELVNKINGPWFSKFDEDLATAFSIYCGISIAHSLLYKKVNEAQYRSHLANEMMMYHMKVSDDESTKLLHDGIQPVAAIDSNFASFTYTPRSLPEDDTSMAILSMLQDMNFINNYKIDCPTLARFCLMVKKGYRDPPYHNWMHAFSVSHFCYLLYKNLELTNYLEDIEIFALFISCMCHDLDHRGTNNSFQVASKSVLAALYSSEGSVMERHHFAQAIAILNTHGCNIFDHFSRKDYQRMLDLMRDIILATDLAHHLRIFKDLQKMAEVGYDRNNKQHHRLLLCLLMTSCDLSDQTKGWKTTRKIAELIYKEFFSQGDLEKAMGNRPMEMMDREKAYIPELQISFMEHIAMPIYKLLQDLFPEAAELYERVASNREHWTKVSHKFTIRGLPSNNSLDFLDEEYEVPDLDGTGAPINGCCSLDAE
row,SMILES,Rhesus PDE2 % inh. at 1 uM - Lab A [% inh.]
1,O=C(NCc1c(Cl)cc(C(F)(F)F)cc1Cl)c1cc(=O)[nH]c(-c2ccccc2)n1 [Example 156],9

# Same assay, conditions: Rhesus PDE2, Lab A; read-out: Rhesus PDE2 Ki (nM) - Lab A
row,SMILES,Ki [nM]
1,O=C(NCc1c(Cl)cc(C(F)(F)F)cc1Cl)c1cc(=O)[nH]c(-c2ccccc2)n1 [Example 156],> 1000
2,"CC(NC(=O)c1cc(=O)[nH]c(-c2ccccc2)n1)c1ncc(C(F)(F)F)cn1 (stereo not shown) [Example 170, 6-oxo-2-phenyl-N-{1-[5-(trifluoromethyl)pyrimidin-2-yl]ethyl}-1,6-dihydropyrimidine-4-carboxamide]",2340
3,"Cc1nc(C(=O)NCc2ccc(C(F)(F)F)cc2C)cc(=O)[nH]1 [Example 23, 2-methyl-N-[2-methyl-4-(trifluoromethyl)benzyl]-6-oxo-1,6-dihydropyrimidine-4-carboxamide]",3920
4,"O=C(NCc1ccc(C(F)(F)F)cc1Cl)c1cc(=O)[nH]c(-c2ccccc2)n1 [Example 181, N-[2-chloro-4-(trifluoromethyl)benzyl]-6-oxo-2-phenyl-1,6-dihydropyrimidine-4-carboxamide]",485
5,"COC(=O)c1ccc(C(C)(C)NC(=O)c2cc(=O)[nH]c(C3CC3)n2)cc1 [Example 215, methyl 4-(1-{[(2-cyclopropyl-6-oxo-1,6-dihydropyrimidin-4-yl)carbonyl]amino}-1-methylethyl)benzoate]",967
6,"C[C@@H](NC(=O)c1cc(=O)[nH]c(-c2ncccn2)n1)c1ccc(C(F)(F)F)c2ccccc12 [Example 102, 6-oxo-N-{(1R)-1-[4-(trifluoromethyl)naphthalen-1-yl]ethyl}-1,6-dihydro-2,2′-bipyrimidine-4-carboxamide]",5120
7,"O=C(N[C@@H](c1ccc(C(F)(F)F)cc1)C1CC1)c1cc(=O)[nH]c(-c2ncccn2)n1 [Example 94, N-{(R)-cyclopropyl[4-(trifluoromethyl)phenyl]methyl}-6-oxo-1,6-dihydro-2,2′-bipyrimidine-4-carboxamide]",20
8,"CC(C)(NC(=O)c1cc(=O)[nH]c(-c2ncccn2)n1)c1ccc(SC(F)(F)F)c(F)c1 [Example 241, N-(1-{3-fluoro-4-[(trifluoromethyl)sulfanyl]phenyl}-1-methylethyl)-6-oxo-1,6-dihydro-2,2′-bipyrimidine-4-carboxamide]",557
9,"CC(NC(=O)c1cc(=O)[nH]c(C2CC2)n1)c1ccc(C(F)(F)F)cn1 (stereo not shown) [Example 238, 2-cyclopropyl-6-oxo-N-{1-[5-(trifluoromethyl)pyridin-2-yl]ethyl}-1,6-dihydropyrimidine-4-carboxamide]",683
10,"Cc1cc(C(F)(F)F)ccc1C(C)NC(=O)c1cc(=O)[nH]c(-c2ncccn2)n1 (stereo not shown) [Example 90, N-{1-[2-methyl-4-(trifluoromethyl)phenyl]ethyl}-6-oxo-1,6-dihydro-2,2′-bipyrimidine-4-carboxamide]",732
11,Cc1cc(C(F)(F)F)ccc1C(C)NC(=O)c1cc(=O)[nH]c(C2CC2)n1 (stereo not shown) [Example 208],291
12,"CC(NC(=O)c1cc(=O)[nH]c(-c2ncccn2)n1)c1ncc(C(F)(F)F)cn1 (stereo not shown) [Example 105, 6-oxo-N-{1-[5-(trifluoromethyl)pyrimidin-2-yl]ethyl}-1,6-dihydro-2,2′-bipyrimidine-4-carboxamide]",3470
13,"COc1ccc(Cc2nc(C(=O)NC3(C)CC3)cc(=O)[nH]2)cc1OC [Example 5, 2-(3,4-dimethoxybenzyl)-N-(1-methylcyclopropyl)-6-oxo-1,6-dihydropyrimidine-4-carboxamide]",1150

# More lines, now with the values ahead:
row,Ki [nM],SMILES
1,247,"COc1ccc([C@@H](C)NC(=O)c2cc(=O)[nH]c(C3CC3)n2)cc1 [Example 216, 2-cyclopropyl-N-[(1R)-1-(4-methoxyphenyl)ethyl]-6-oxo-1,6-dihydropyrimidine-4-carboxamide]"
2,4590,"Cc1nc(C(=O)N[C@@H](C)c2ccc(OC(F)F)cc2)cc(=O)[nH]1 [Example 56, (S)-N-(1-(4-(difluoromethoxy)phenyl)ethyl)-2-methyl-6-oxo-1,6-dihydropyrimidine-4-carboxamide]"
3,2380,"Cc1nc(C(=O)NC(C)c2ccc(C(C)C)cc2)cc(=O)[nH]1 (single isomer, unassigned) [Example 306, (S)- or (R)-2-methyl-N-{1-[4-(1-methylethyl)phenyl]ethyl}-6-oxo-1,6-dihydropyrimidine-4-carboxamide]"
4,1160,"COc1cc(C(C)NC(=O)c2cc(=O)[nH]c(C)n2)ccc1C(F)(F)F (stereo not shown) [Example 27, N-{1-[3-methoxy-4-(trifluoromethyl)phenyl]ethyl}-2-methyl-6-oxo-1,6-dihydropyrimidine-4-carboxamide]"
5,1700,"Cc1nc(C(=O)N[C@H](C)c2ccc(-c3cccnc3)cc2)cc(=O)[nH]1 [Example 320, 2-methyl-6-oxo-N-[(1R)-1-(4-pyridin-3-ylphenyl)ethyl]-1,6-dihydropyrimidine-4-carboxamide]"
6,5650,"Cc1nc(C(=O)NC(C)c2ccc(C(C)(C)C)cc2)cc(=O)[nH]1 (single isomer, unassigned) [Example 310, (S)- or (R)-N-[1-(4-tert-butylphenyl)ethyl]-2-methyl-6-oxo-1,6-dihydropyrimidine-4-carboxamide]"
7,3630,"Cc1nc(C(=O)NCc2ccc(C(F)(F)F)cc2Cl)cc(=O)[nH]1 [Example 24, N-[2-chloro-4-(trifluoromethyl)benzyl]-2-methyl-6-oxo-1,6-dihydropyrimidine-4-carboxamide]"

# Same assay, conditions: Rhesus PDE2, Lab B; read-out: Rhesus PDE2 Ki (nM) - Lab B
row,SMILES,Ki [nM]
1,"CC(C)(NC(=O)c1cc(=O)[nH]c(-c2ncccn2)n1)c1ccc(S(F)(F)(F)(F)F)cc1 [Example 678, N-{1-methyl-1-[4-(pentafluoro-λ^6-sulfanyl)phenyl]ethyl}-6-oxo-1,6-dihydro-2,2′-bipyrimidine-4-carboxamide]",501
2,"O=C(NC1(c2ccccc2OC(F)(F)F)CC1)c1cc(=O)[nH]c(-c2ccccc2)n1 [Example 380, 6-oxo-2-phenyl-N-{1-[2-(trifluoromethoxy)phenyl]cyclopropyl}-1,6-dihydropyrimidine-4-carboxamide]",353
3,"O=C(NC(c1ccncc1)c1ccc(C(F)(F)F)cc1)c1cc(=O)[nH]c(-c2ccccc2)n1 (stereo not shown) [Example 399, 6-oxo-2-phenyl-N-{pyridin-4-yl[4-(trifluoromethyl)phenyl]methyl}-1,6-dihydropyrimidine-4-carboxamide]",407
4,"CC(NC(=O)c1cc(=O)[nH]c(-c2ccccc2)n1)c1cccc(OC(F)(F)F)c1 (stereo not shown) [Example 422, 6-oxo-2-phenyl-N-{1-[3-(trifluoromethoxy)phenyl]ethyl}-1,6-dihydropyrimidine-4-carboxamide]",1840
5,"COc1ccc(C(C)(C)c2nc(C(=O)N[C@@H](c3ccc(C(F)(F)F)cc3)C(C)(C)C)cc(=O)[nH]2)cc1 [Example 456, N-{(1R)-2,2-dimethyl-1-[4-(trifluoromethyl)phenyl]propyl}-2-[1-(4-methoxyphenyl)-1-methylethyl]-6-oxo-1,6-dihydropyrimidine-4-carboxamide]",98
6,"CC(NC(=O)c1cc(=O)[nH]c(-c2ccccc2)n1)c1ccccc1-c1ccccc1 (stereo not shown) [Example 416, N-(1-biphenyl-2-ylethyl)-6-oxo-2-phenyl-1,6-dihydropyrimidine-4-carboxamide]",1770

# Second part, the compound after the results:
row,Ki [nM],SMILES
1,8780,"CC(NC(=O)c1cc(=O)[nH]c(-c2ccccc2)n1)c1ccc(O)cc1 (stereo not shown) [Example 369, N-[1-(4-hydroxyphenyl)ethyl]-6-oxo-2-phenyl-1,6-dihydropyrimidine-4-carboxamide]"
2,3120,"CC(NC(=O)c1cc(=O)[nH]c(-c2ccccc2)n1)c1ccc(S(C)(=O)=O)cc1 (stereo not shown) [Example 382, N-{1-[4-(methylsulfonyl)phenyl]ethyl}-6-oxo-2-phenyl-1,6-dihydropyrimidine-4-carboxamide]"
3,~2890,"CCOC(=O)c1ccc([C@H](C)NC(=O)c2cc(=O)[nH]c(-c3ncccn3)n2)cc1 [Example 431, ethyl 4-[(1S)-1-{[(6-oxo-1,6-dihydro-2,2′-bipyrimidin-4-yl)carbonyl]amino}ethyl]benzoate]"
4,2220,"C[C@H](NC(=O)c1cc(=O)[nH]c(-c2ccccc2)n1)c1ccc(Cl)cc1 [Example 394, N-[(1S)-1-(4-chlorophenyl)ethyl]-6-oxo-2-phenyl-1,6-dihydropyrimidine-4-carboxamide]"
